Source: paper PMC8541353, “A Novel Phenylpyrrolidine Derivative: Synthesis and Effect on Cognitive Functions in Rats with Experimental Ishemic Stroke” (Molecules, 2021)

Legend:
[1] = tested on: intact animals; assay: Light-dark box test (LDB) in intact animals; assay type: in vivo, Wistar rats; details: intact rats, day 8; compound 1 125 mg kg^−1, piracetam 300 mg kg^−1, intraperitoneally for 5 days; mean and SD
Description: Before the study, the intact animals were subjected to the hole-board test (HBT), weighed, and stratified into three uniform groups in terms of orientational/exploratory activity and weight. […] On day 7, we performed OFT (open field test), followed by LDB (light—dark box test) on day 8 (Scheme 3, Step 1). These tests assess the activity and describe the behavior of the animals. According to OFT, compound 1 decreased the vertical activity and the immobility time compared to the saline-treated group (Table 2).
Before conducting the experiments, the animals underwent the HBT and were allocated to groups based on their behavior score and weight. Kullback–Leibler divergence method for allocation based on two numerical parameters was used for allocation. We used a sum score for behavior tests and weight. Subsequently, two experimental series were performed. In the first series, rat behavior without stroke modeling after injection of compound 1 (experimental group, n = 10) or saline (control group, n = 10) was evaluated (Scheme 3a). […] Compound 1 was injected at a dose of 125 mg kg^−1 and an injection volume of 0.5 mL. […] For the experiments, the following predetermined exclusion criteria were used: (1) incomplete MCAO indicated by an incomplete lesion on magnetic resonance imaging (MRI) after 24 h [n = 4]and (2) post-operative weight loss of > 20% and severe animal condition within the first post-stroke 48 h [n = 3]. Animals reached humane endpoints based on the absence of nociceptive reflex withdrawal responses, hypothermia, and heart rate reduction to 100–150 beats min^−1. As steroid treatment could have influenced the experiment, rats were humanely euthanized according to the ethical protocol. The experiment design is presented in Scheme 3b.
(§1) In the first experimental series, the following test systems were used: HBT (OpenScience, Russia), OFT (OpenScience), and LDT (OpenScience). The design for the second experimental series was as follows. All rat behavioral changes were evaluated during the four weeks after stroke simulation. Individuals who performed these procedures were double-blinded. General neurological disorders were assessed using the modified neurological severity score (mNSS). Motor and cognitive impairment were evaluated using the following functional tests: BWT (OpenScience), HBT (OpenScience), and OFT (OpenScience). The BWT was performed between postoperative days 12 and 14. In this test, motor dysfunction in all four limbs was evaluated; specifically, the number of steps, errors, and slides were counted. The overall score was calculated using the following formula: score = errors + 0.5 × slides × 100/total number of steps [47]. The beam apparatus consists of 165 cm beams with a flat surface of 10 mm or 6 mm width, resting 100 cm above the table top on two poles. A black box is placed at the end of the beam as the finish point. Nesting material from home cages is placed in the black box to attract the rat to the finish point. A lamp (with 60-watt light bulb) is used at the start to stimulate the animals to move towards the end.

[2] = Reported BBB permeability; details: compound 1, no reference given; own data
Description: Table 5 Predicted permeability of ampakines in silico and in the blood–brain barrier (BBB). | column: Literature Report of BBB Permeability

[3] = tested on: rats with MCAO; assay: Beam walking test (BWT) after MCAO; assay type: in vivo, Wistar rats; design: key to Left forelimb score / Right forelimb score / Left hindlimb score / Right hindlimb score: score = errors + 0.5 × slides × 100/total number of steps; details: for Animals that failed to train for the BWT test: after MCAO, days 12–14; for Left forelimb score / Left hindlimb score / Right forelimb score / Right hindlimb score: day 14 after MCAO, mean ± SD
Method: A MCAO animal model was used to characterize the effects of compound 1 on the development and resolution of stroke. At the baseline, we performed the MRI and hole-board test before MCAO surgery. Once animals recovered after the surgery, we stratified them based on their background psycho-emotional status and performed a control MRI to access whether the occlusion was sufficient or not. […] From 24 h to day 7, the neurological status was assessed daily according to the neurological scale (mNSS). By the end of day 7, animals underwent MRI. In addition, MRI was performed on days 14 and 28 (Shceme 3)The hole-board test was repeated on days 10 and 24. The degree of motor function impairment, the deficit of exploratory behavior, and the recovery process were assessed in the beam walking test (BWT), which was performed twice on days 12 and 14. An open field test was carried out on days 16 and 26.
The increased locomotor activity, expanded orientational research activity, and reduced anxiety and depressive behavior in rats treated with compound 1 highlighted the possible benefits of the compound in post-ischemic stroke management. As stroke affects not only locomotor activity but also the cognitive behavior, we conducted an additional beam walking test. It is proven that depression and anxiety in the post-stroke period increase the risk of mortality and affect the functional recovery of patients. There is a direct relationship between the severity of cognitive deficits, patients’ survival, and their successful social integration. Conventionally, BWT is aimed at finding motor deficits on the contralateral side of the brain lesion. However, based on the test methodology, which was testing animals before surgery and on the 12th–14th days after surgery, we can indirectly conclude whether the memory trace is preserved or lost. […] Most of the animals from the saline group sat still and one rat fell. Since the hippocampus, which is a structure responsible for the formation of both […] and long-term memory, is involved in the pathological process of ischemia, in rats, we hypothesized that the ability to reproduce and form a memorable trace can be also affected in our MCAO model. According to MRI data, the hippocampus was indeed affected by MCAO. Thus, compound 1 possibly helped to restore neural connections in the hippocampus as quickly as possible.
as §1

[4] = cited from earlier work

SMILES | Number of crossings (n) [1] [n] | Number of peeking out events (n) [1] [n] | Time spent in the light compartment [1] [s] | BBB Permeability (column Literature Report of BBB Permeability) [2] | Animals that failed to train for the BWT test [3] | Left forelimb score [3] | Left hindlimb score [3] | Right forelimb score [3] | Right hindlimb score [3] | Increase of BBB permeability in animals with ischemic stroke ([4]; animals with ischemic stroke, ref 25 (Paliwal et al. 2018)) [fold] | Literature Report of BBB Permeability [4]
O=C(CN1CC(c2ccccc2)CC1=O)NCCS(=O)(=O)[O-].[K+] (stereo not shown) [Compound 1, potassium 2-[2-(2-oxo-4-phenylpyrrolidin-1-yl)acetamido]ethane-1-sulfonate] | 2.9 ± 1.2 | 5.2 ± 2.8 | 16.5 ± 8.3 | Low | No animals failed | 42.2 ± 28.0 | 28.8 ± 15.3 | 11.6 ± 13.8 | 45.8 ± 30.4 | – | –
NC(=O)CN1CCCC1=O [Piracetam, reference compound] | 3.7 ± 1.6 | 4.8 ± 2.5 | 26.3 ± 13.4 | – | more than half of the animals and five | 32.8 ± 26.4 | 24.8 ± 22.2 | 12.4 ± 16.0 | 36.0 ± 30.4 | 3.5 | Very good [21, 22]
